# According to patent US10501800B2, “Breast cancer prognosis” (Regents of the University of Minnesota, priority 2012, dated 2019):
# “Also recorded” adds a separate entry of the source.
# Tests used:
# PR protein expression = assay: Western blotting for PR in doxorubicin-treated T47D cells expressing inducible PR (PARP cleavage assay); type: cell-based, human; details: doxorubicin 8 uM, 24 h
# Procedure: Poly (ADP)-ribose polymerase 1 (PARP) cleavage assays were used to measure the level of apoptosis in cell cultures after treatment with cytotoxic concentrations of doxorubicin. T47D cells expressing inducible PR were plated in 10 cm dishes (2×10^6 cells/dish) in cMEM and induced with AP21967 (10^−9 M). Cells were washed, induced, and serum starved for 4 d. Cells were then treated with R5020 (10^−8M) for 6 h before adding doxorubicin (8 uM) to dishes for 24 h. Protein was harvested using standard RIPA lysis buffer, subjected to SDS-PAGE and western blotting using cleaved-PARP and PR antibodies. Beta-actin western blotting was performed for sample loading controls.
# [1] = tested on: PR Ser294 phosphorylation; assay: Western blotting for PR Ser294 phosphorylation in BT-474 cells; type: cell-based, human
# Procedure: (§1) T47Dco parental cell lines were characterized previously (Horwitz et al., 1982). T47D cells stably expressing PR were created by molecular cloning of cDNAs encoding either WT, K388R, S294A, or K388R/S294A PR into a pIRES-neo3 expression vector (Clontech, catalog #631621), followed by transfection of vectors into T47D-Y cells (Sartorius et al., 1994) using FuGENE HD (Roche, catalog #04709713001). Single-cell clones were expanded under high G418 selection (500 ug/ml) and maintained in low G418 selection (200 ug/ml) (EMD Chemicals, catalog #345810). These cells were maintained in complete minimal essential medium (cMEM) supplemented with 5% fetal bovine serum (FBS), 1% non-essential amino acids (NEAA), 1% penicillin/streptomycin, 6 ng/ml insulin (CellGro, catalog #10-010-CV). T47D cells expressing inducible PR were described previously (Hagan et al., 2011). Inducible PR expression was achieved by adding AP21967 (10^−9 M, Ariad Pharmaceuticals, Cambridge, Mass.) to cell culture medium for a minimum treatment time of 2 d. MCF-7 cell lines expressing PR were created by transfection of pIRES-neo3 vectors containing cDNA inserts encoding either WT or KR PR into cells using FuGENE HD. Single-cell clones were expanded under high G418 selection and maintained in low G418 selection. […]
# [2] = tested on: PR target genes (CHN2, RGS2, ACOT6) in BT-474 human breast cancer cells; assay: RT-qPCR of PR target genes in BT-474 cells, with or without MEK inhibitor; type: cell-based
# Procedure: For reverse transcription quantitative polymerase chain reaction (RT-qPCR) assays, 5×10^5 cells/well were plated in 6-well dishes, serum starved in modified IMEM for 1 day before treatments (see individual figures). RNA was extracted using TriPure reagent (Roche, catalog #11667157001) and cDNA was created using the Transcriptor cDNA first-strand cDNA synthesis kit (Roche, catalog #04897030001). Relative expression levels were determined by qPCR assays performed on a Roche LightCycler II using SYBR green master-mix (Roche, catalog #04887352001). Target gene quantification levels were normalized to the expression of standard housekeeper genes: TBP, ACTB, and/or GAPDH. For cells expressing inducible PR, the protocol was the same as above, except prior to ligand treatments, the cells were induced with AP21967 (10^−9 M) for 2 d.
# For experiments using MEK inhibitors, BT-474 cells were plated in […] dishes at 5×10^5 cells/well. One day later, the cells were washed and serum starved in modified IMEM for 1d. These cells were pre-treated with the MEK inhibitor U0126 (5 uM, EMD Chemicals, catalog #662005) for 30 min R5020 (10^−8 M) and/or RU486 (10^−7 M) was then added to cell culture wells for 6 h before RNA/protein isolation and RT-qPCR/western blotting was performed, as described above.
# [3] = tested on: T47D cells expressing inducible PR (iWT, iKR); assay: MTT proliferation assay in T47D cells expressing inducible PR; type: cell-based, human; details: cells expressing iWT or iKR PRs vs un-induced or untreated counterparts; R5020
# Procedure: Cell proliferation was measured using MTT assays (3-[4,5-dimethylthiazol-2-yl]-2,5-diphenyltetrazolium bromide, Sigma catalog #M2128). In 24-well plates, 1×10^4 cells/well were plated in cMEM (inducible PR expression was induced with AP21967 (10^−9 M) for 2 days), cells were washed and steroid starved in modified IMEM supplemented with 5% dextran-coated charcoal-treated (DCC) FBS for 1 day before the addition of R5020 (10^−8 M). At days 0, 2, 4, 6, cell proliferation was determined by adding 60 ul MTT (5 mg/ml) to each 0.5 ml cell culture well for 3 hours, medium was carefully removed and solublization solution (90% v/v DMSO/PBS) was added to lyse the cells. Lysate absorbance (650 and 570 nm) was measured using a plate reader. 650 nm measurements were subtracted from 570 nm measurements and sample means were normalized to day zero.
# [4] = tested on: RGS2 expression in T47D cells expressing WT PR or KR PR; assay: RT-qPCR of PR target genes in T47D cells stably expressing WT or KR PR; type: cell-based, human; details: R5020 6 h
# Procedure: as §1, with “2011).” for “2011). Inducible PR expression was achieved by adding AP21967 (10^−9 M, Ariad Pharmaceuticals, Cambridge, Mass.) to cell culture medium for a minimum treatment time of 2 d. MCF-7 cell lines expressing PR were created by transfection of pIRES-neo3 vectors containing cDNA inserts encoding either WT or KR PR into cells using FuGENE HD. Single-cell clones were expanded under high G418 selection and maintained in low G418 selection.”
# For reverse transcription quantitative polymerase chain reaction (RT-qPCR) assays, 5×10^5 cells/well were plated in 6-well dishes, serum starved in modified IMEM for 1 day before treatments (see individual figures). […] Relative expression levels were determined by qPCR assays performed on a Roche LightCycler II using SYBR green master-mix (Roche, catalog #04887352001). Target gene quantification levels were normalized to the expression of standard housekeeper genes: TBP, ACTB, and/or GAPDH. […]
# [5] = tested on: PR target genes in T47D cells expressing WT PR, SUMO-deficient PR (KR) or empty vector; assay: Gene expression profiling (Illumina HT-12v4) of T47D cell lines treated with progesterone or antiprogestins; type: cell-based, human; details: for expression of progesterone-regulated PR target genes: T47D cells expressing SUMO-deficient PR (KR), antiprogestin 10^−7 M alone or plus progesterone 10^−8 M
# Procedure: T47D cells stably expressing pIRES-neo3 empty vector, WT or KR PR were serum starved in modified IMEM (Gibco, catalog #A10488) for 1 day, treated with R5020 (10^−8 M) or vehicle control for 6 h before RNA extraction using a RNeasy kit (QIAgen, catalog #74104). Six h of progestin treatment allowed for substantial PR-dependent gene expression as compared to prior studies (Jacobsen et al., 2005; Richer et al., 2002). DNase I treated (QIAgen, catalog #79254) RNA samples from duplicate experiments were prepared for expression analysis using the Illumina HT-12v4 bead chip platform according to manufacture's protocols. Data were analyzed within R software using the Bioconductor (Gentleman et al., 2004) package called lumi where raw intensities were log2 transformed and quantile normalized. Differentially expressed genes were analyzed using the limma package, where empirical Bayes was used to better estimate the variance of the genes. Gene expression data presented contain log2 normalized intensities and biological comparisons presented (e.g. R5020/vehicle) contain log2 fold change with the Benjamini and Hochberg (BH) adjusted P value (Benjamini and Hochberg, 1995). To generate the heat map in FIG. 1C, unsupervised hierarchical clustering of genes was carried out using heatmap. 2 function in the R package gplots. Clustering was performed using Euclidean distance and complete linkage. Rows were scaled to have mean zero and standard deviation equal to one.
# Gene expression profiles in T47D cell lines treated with antiprogestins were obtained using identical methods as described above, except for these notable differences. After serum starvation, cells stably expressing empty vector, WT, or KR PR were treated for 6 hours under one of eight possible conditions: (1) ethanol (vehicle control), (2) progesterone (10^−8 M), (3) RU486 (10^−7 M), (4) aglepristone (10^−7 M), (5) onapristone (10^−7 M), (6) RU486 (10^−7 M) plus progesterone (10^−8 M), (7) aglepristone (10^−7 M) plus progesterone (10^−8 M), or (8) onapristone (10^−7 M) plus progesterone (10^−8 M). Gene expression levels were measured, normalized, analyzed, and heat maps were generated using the methods described above.
# Raw microarray data from two independent microarray experiments (both performed using the Illumina HT-12v4 platform described above) were combined and normalized together within R software using the Bioconductor (Gentleman et al., 2004) package called lumi where raw intensities were log 2 transformed and quantile normalized.
# Sample Sizes & Composition: For the first analysis, two KR cell replicates were used that had been stimulated with R5020 a synthetic progestin in the first experiment and three KR cell replicates that had been stimulated with progesterone in the second experiment. The same was accomplished regarding the corresponding WT cell replicates. Pertaining to the first analysis, therefore, a sample size of n=5 was used for each of the two groups (KR & WT). Regarding the second analysis, we used three KR cell replicates that had been co-treated with progesterone plus onapristone in the second experiment; and we used three WT cell replicates that had been co-treated with progesterone plus onapristone also in the second experiment (n=3 for each of the two groups). Regarding the third analysis, we used three KR cell replicates that had been co-treated with progesterone plus RU486 in the second experiment; and we used three WT cell replicates that had been co-treated with progesterone plus RU486 also in the second experiment (n=3 for each of the two groups). Regarding the fourth analysis, three KR cell replicates was used that had been co-treated with progesterone plus onapristone; and three WT cell replicates were used that had been treated with vehicle control (ethanol) (n=3 for each of the two groups). […]
# [6] = tested on: MAP1A and RGS2 mRNA in T47D cells stably expressing WT PR; assay: RT-qPCR with epidermal growth factor (EGF) treatment in T47D cells expressing WT PR; type: cell-based, human
# Procedure: For RT-qPCR assays involving epidermal growth factor (EGF) treatment, cells were plated at 5×10^5 cells/well in 6-well dishes and serum starved for 2 days in modified IMEM. Cells were pre-treated with 100 ng/ml EGF (Sigma, catalog #E9644) before treatment with R5020 (10^−8 M).
# [7] = pre-treatment with U0126 5 uM for 30 min
molecule,measurement,setting,value
"COc1cccc2c1C(=O)c1c(O)c3c(c(O)c1C2=O)C[C@@](O)(C(=O)CO)C[C@@H]3O[C@H]1C[C@H](N)[C@H](O)[C@H](C)O1 [Doxorubicin, doxorubicin]",WT and KR PR protein expression,PR protein expression,reduced
CCC(=O)[C@@]1(C)CC[C@H]2[C@@H]3CCC4=CC(=O)CCC4=C3CC[C@@]21C [R5020],PR-B Ser294 phosphorylation,[1]; R5020 treatment,elevated
same,ACOT6 expression,"[2]; R5020 10^−8 M, 6 h",induced
same,upregulation of CHN2 mRNA,"[2]; R5020 10^−8 M, 6 h",17 fold
same,upregulation of RGS2 mRNA,"[2]; R5020 10^−8 M, 6 h",26 fold
same,cell growth,[3],grew faster
same,RGS2 expression response to R5020,[4]; T47D cells expressing KR PR,~20 fold
same,RGS2 expression response to R5020,[4]; T47D cells expressing WT PR,~2 fold
N#CC(=C(/N)Sc1ccccc1N)/C(C#N)=C(\N)Sc1ccccc1N [U0126],R5020-induced PR Ser294 phosphorylation,[1]; [7],blocked
same,R5020-induced ACOT6 expression (control gene),"[2]; MEK kinase inhibition, U0126 5 uM",completely insensitive
same,R5020-induced CHN2 and RGS2 expression,[2]; [7],"partially, but significantly, diminished"
"C/C=C\[C@]1(O)CC[C@H]2[C@@H]3CCC4=CC(=O)CCC4=C3[C@@H](c3ccc(N(C)C)cc3)C[C@@]21C [aglepristone, (8S,11R,13S,14S,17R)-11-(4-dimethylaminophenyl)-17-hydroxy-13-methyl-17-[(Z)-prop-1-enyl]-1,2,6,7,8,11,12,14,15,16-decahydrocyclopenta[a]phenanthren-3-one]",expression of progesterone-regulated PR target genes,[5]; 6 h,caused many PR target genes to become upregulated
same,agonistic activity,[5]; cells expressing hyperactive / SUMO-deficient PR (KR),substantial agonistic activity; also recorded: agonistic properties
"CN(C)c1ccc([C@H]2C[C@]3(C)[C@@H](CC[C@]3(O)CCCO)[C@@H]3CCC4=CC(=O)CCC4=C32)cc1 [onapristone, (8S,11R,13R,14S,17S)-11-[4-(dimethylamino)phenyl]-17-hydroxy-17-(3-hydroxypropyl)-13-methyl-1,2,6,7,8,11,12,14,15,16-decahydrocyclopenta[a]phenanthren-3-one]",number of the 29 KR>WT genes stimulated by onapristone treatment alone,"[5]; KR cells, onapristone alone",none
same,number of the 29 KR>WT genes stimulated by onapristone plus P4 treatment,"[5]; KR cells, onapristone plus P4",13 genes
same,"number of genes significantly differentially expressed, KR cells (onapristone plus progesterone) vs WT cells (ethanol)","[5]; KR treated with onapristone plus progesterone, WT treated with vehicle control",5 genes
same,expression of progesterone-regulated PR target genes,[5]; 6 h,did not cause these PR target genes to be upregulated; also recorded: do not stimulate gene expression
same,"number of genes significantly differentially expressed, WT cells (progesterone plus onapristone) vs WT cells (ethanol)",[5]; WT cells,only one gene
same,number of genes significantly differentially expressed between KR and WT cells,[5]; both cell lines co-treated with progesterone plus the antiprogestin,8 genes
same,significant differential expression of the 15 biomarker genes between KR and WT cells,"[5]; both cell lines co-treated with progesterone plus the antiprogestin, with the exception of one gene (CDH10)",completely annulled
same,antagonist activity,[5]; cells expressing WT or KR PR,effective antagonist
same,reversal of the effects of progesterone exposure,"[5]; cells expressing activated PR (KR), onapristone in the presence of progesterone",can effectively reverse
same,inhibition of expression of PR target genes,[5]; cells that express hyperactive PR (phosphorylated and deSUMOylated; KR),can successfully inhibit
same,reversal of transcriptional differences induced by progesterone,"[5]; cells with a WT PR receptor, progesterone plus onapristone",almost completely reverse
CC(=O)[C@H]1CC[C@H]2[C@@H]3CCC4=CC(=O)CC[C@]4(C)[C@H]3CC[C@]12C [progesterone],gene expression after progesterone (P4) treatment,"[5]; both WT and KR cells, progesterone 10^−8 M, 6 h",significantly upregulated
"EGF: epidermal growth factor (Sigma) (NSDSECPLSHDGYCLHDGVCMYIEALDKYACNCVVGYIGERCQYRDLKWWELR; Epidermal growth factor; UniProt P01133 971-1023, looked up)",MAP1A and RGS2 mRNA expression,[6]; EGF alone (100 ng/ml) over a 2-day time course,insensitive
same,progestin stimulated mRNA expression of MAP1A and RGS2,[6]; EGF pre-treatment (100 ng/ml) followed by R5020 10^−8 M,significantly augmented
